Assay results reported in paper PMC5845537 (Frontiers in Pharmacology, 2018).

Legend:
Long-Evans rats = assay: Attentional set-shifting task (AST) in subchronic PCP-treated rats; format: in vivo, rat
Protocol: Subchronic PCP treatment: The subPCP administration regimen used in rats was conducted as described in ([Goetghebeur and Dias, 2009]), which is a reliable method for inducing deficits in our hands. Rats in the subPCP experiments received injections of 5 mg/mL PCP or vehicle (saline) s.c. at a 1 mL/kg injection volume twice per day for 7 days. […] The mouse subPCP regimen was conducted as described in [Pedersen et al. (2014)]. Briefly, mice received vehicle or PCP (1.3 mg/mL concentration, 10 mL/kg injection volume) s.c once per day for 14 days followed by a 7-day washout prior to experimentation.
Each test used male Long-Evans rats (Charles River, United States) aged 5–6 weeks when arriving at the research facility.
The attentional set-shifting test (AST) methods used here were adapted from [Goetghebeur and Dias (2009)]. The apparatus used for the AST test was a 44 cm × 64 cm × 30 cm black non-transparent Perspex test box, divided into 3 equal-sized areas (a starting area separated from a choice area subdivided in two). In the choice area, two 11 cm diameter terracotta pots were placed recessed into the box floor (with a 2 cm lip remaining above the floor) and separated by a divider. Odor (oils from The Body Shop®, United Kingdom) and media cues (not previously presented to the rats) were added to the pots.
Beginning on day 3 after the cessation of PCP administration, rats were subjected to a habituation period and trained to dig for a diet reward (half a Honey Loop cereal, Nestlé®) in terracotta pots filled with sawdust. On day 7 of PCP washout, rats were subjected to a single training session in which they were required to discriminate between two pots in order to find the reward. These discriminations were either based on differences in the digging media or the pot’s odor. On day 8 rats were presented with a series of increasingly difficult discriminations: a simple discrimination (SD), a compound discrimination (CD), two intra-dimensional shifts (ID1, ID2), an intra-dimensional shift reversal (ID2R), an extra-dimensional shift (ED) and an extra-dimensional shift reversal (EDR; see Table 1). Rats were required to meet a training criterion before moving on to a new discrimination type (for specifics, see Statistical Analysis, below).
The first trial of each discrimination stage was a discovery trial in which rats were allowed to dig in both pots, and to self-correct if digging in the wrong pot. Rats were only given one discovery trial. The discovery trial was included in the trials to criterion if the rat dug first in the correct pot, but not if the rat self-corrected an incorrect initial dig.
In the acute vortioxetine study, prior to the start of behavioral experiments on Day 8 of washout from PCP treatment, animals were randomly administered either 20% CD (Veh), […], or 64 mg/kg modafinil 30 min p.o. as described above (included as a positive control). Thus, the treatment groups in the acute vortioxetine study were as follows: Veh/Veh, PCP/Veh, PCP/1 mg/kg vortioxetine, PCP/3 mg/kg vortioxetine, PCP/10 mg/kg vortioxetine, or PCP/64 mg/kg modafinil.
Food dosing lasted from the first day of sub-chronic PCP administration and until the last day of the washout period (total of 14 days). After the end of the washout period where behavioral testing started, rats were fed with the same conditioned diet, however, under food restriction (∼11 g of diet per day per rat). In addition, some PCP-treated animals were fed vehicle food, but received acute injections of either 10 mg/kg vortioxetine, or 64 mg/kg modafinil, as described above. The treatment groups for the subchronic vortioxetine administration study were as follows: Veh/Veh, PCP/Veh, PCP/0.22 g/kg vortioxetine food, PCP/1.8 g/kg vortioxetine food, PCP/10 mg/kg vortioxetine 1 h s.c., or PCP/64 mg/kg 30 min p.o.
A third experiment was conducted to examine the effects of acute SERT inhibition or 5-HT3 receptor antagonism on subPCP-induced AST impairments. […]

GABAA receptor = assay: Ex vivo autoradiography, GABAA receptor competition binding ([3H]muscimol vs GABA), medial prefrontal cortex; parameters: species or system rat
From the text: Rats used in ex vivo autoradiography (EVA) experiments were randomly assigned to one of four experimental groups characterized by either subchronic saline or PCP (as described above) along with either vehicle or vortioxetine-infused food (1.8 g vortioxetine/kg food weight, as described in the attentional set shifting task). On day 8 of PCP withdrawal, rats were anesthetized using CO2 and killed by decapitation. Brains were quickly and gently removed from the skull, flash frozen on powdered dry ice, and stored at -20°C until sectioning. […] After the tissue mounted on the microscope slides had dried thoroughly (in order to reduce damage from freezing), slides were packed into slide boxes with desiccator pellets, and stored at -20°C for use in EVA saturation binding and competition experiments.
Each of the EVA procedures used in this study are variations on a similar theme. On the day of an experiment, slide-boxes were defrosted under a constant stream of air at room temperature until the boxes were dry and equilibrated with the environment in terms of temperature. […] Prior to any binding experiments, slides were preincubated in the appropriate preincubation buffer and dried at room temperature. Subsequently, tissue was incubated in an assay buffer containing a radioligand appropriate for the receptor of interest, then rinsed in assay buffer, and dried overnight in a vacuum desiccator. […] Finally, slides were opposed to a tritium-sensitive phosphor screen (Fuji imaging plate, GE Healthcare, Pittsburgh, PA, United States) for 5 days before being read in a phosphorimager (Typhoon FLA7000, GE Healthcare).
Ki values for competition experiments were calculated separately for each animal, then aggregated to estimate sample averages and error. Ki values were calculated via non-linear regression, assuming a one-site competition binding, using GraphPad Prism version 6 for Windows (GraphPad software, La Jolla, CA, United States). pKi values were then calculated via the following formula: pKi = -Log10(Ki).

[1] = subchronic vortioxetine study, subPCP vs Veh/Veh, p < 0.001
[2] = subchronic high-dose 1.8 g vortioxetine/kg food weight p.o., p < 0.001
[3] = subchronic low-dose 0.18 g vortioxetine/kg food weight p.o., p < 0.001
[4] = subchronic vortioxetine study, acute 10 mg/kg 1 h s.c., p < 0.001

Structure (SMILES)	trials to reach criterion, EDR discrimination (Long-Evans rats; acute vortioxetine study, subPCP/vehicle vs vehicle/vehicle)	trials to reach criterion, ED discrimination (Long-Evans rats; acute vortioxetine study, subPCP/vehicle vs vehicle/vehicle, PCP 5 mg/kg s.c. twice per day 7 days, 7-day washout, p < 0.01)	trials to reach criterion, EDR discrimination (Long-Evans rats; ondansetron/escitalopram study, subPCP vs vehicle/vehicle)	trials to reach criterion, ED discrimination (Long-Evans rats; ondansetron/escitalopram study, subPCP vs vehicle/vehicle, p < 0.001)	trials to reach criterion, ED discrimination (Long-Evans rats; [1])	trials to reach criterion, EDR discrimination (Long-Evans rats; [1])	effect of treatment on GABA pKi at the GABAA receptor (GABAA receptor; subPCP treatment on its own)	reversal of subPCP-induced impairment, ED discrimination (trials to criterion) (Long-Evans rats; acute vortioxetine study, 1 mg/kg 1 h s.c., vs PCP/Veh)	reversal of subPCP-induced impairment, ED discrimination (trials to criterion) (Long-Evans rats; acute vortioxetine study, 3 mg/kg 1 h s.c., vs PCP/Veh)	reversal of subPCP-induced impairment, ED discrimination (trials to criterion) (Long-Evans rats; acute vortioxetine study, 10 mg/kg 1 h s.c., vs PCP/Veh)	reversal of subPCP-induced impairment, EDR discrimination (trials to criterion) (Long-Evans rats; acute vortioxetine study, acute 1, 3, 10 mg/kg 1 h s.c., vs PCP/Veh)	attenuation of subPCP-induced impairment, ED discrimination (Long-Evans rats; [2])	attenuation of subPCP-induced impairment, EDR discrimination (Long-Evans rats; [2])	attenuation of subPCP-induced impairment, ED discrimination (Long-Evans rats; [3])	attenuation of subPCP-induced impairment, EDR discrimination (Long-Evans rats; [3])	normalization of AST performance in subPCP-treated rats, ED (Long-Evans rats; [4])	normalization of AST performance in subPCP-treated rats, EDR (Long-Evans rats; [4])	GABA pKi at the GABAA receptor, PCP/vortioxetine vs vehicle/vortioxetine group (GABAA receptor; subchronic vortioxetine combined with subPCP, p < 0.01)	increase in the affinity of GABA for the GABAA receptor (GABAA receptor; vehicle/vortioxetine vs saline/vehicle group, subchronic 1.8 g vortioxetine/kg food, p < 0.01)
Cl.c1ccc(C2(N3CCCCC3)CCCCC2)cc1 [PCP, 1-(1-phenylcyclohexyl)-piperidine hydrochloride]	significant increases	significant increase	failed to induce a significant increase	significant increase	significant increase	significant increase	did not significantly alter	–	–	–	–	–	–	–	–	–	–	–	–
Cc1ccc(Sc2ccccc2N2CCNCC2)c(C)c1 [vortioxetine]	–	–	–	–	–	–	–	significantly reversed	significantly reversed	significantly reversed	neither acute vortioxetine nor modafinil significantly reversed	significantly attenuated	significantly attenuated	significantly attenuated	significantly attenuated	significant normalization	significant normalization	significantly lower	approximately 2.5 fold
